Among the data in patent US10323018B2 (Millennium Pharmaceuticals, Inc., priority 2015, dated 2019) are inhibition, IC50 and viability values, retold here.

One experiment has as its target hNAMPT protein (Homo sapiens (Human), UniProt P43490). As to the kind of experiment: NAMPT enzyme assay (TR-FRET/HTRF with BodiPY ligand). It is filed as binding. Particulars: for inhibition at 1 µM: NAMPT inhibition at compound concentration 1 μM; for IC50: NAMPT inhibition, IC50 range class. In outline: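 Ligand displacement by TR-FRET: BodiPY emission (520 nm) over terbium (486 nm) after 320 nm excitation. Compound, BodiPY ligand, hNAMPT and anti-6His-Tb incubated 1 h at room temperature, dark, at pH 7.5. Percent inhibition computed versus DMSO; concentration-response curves fitted for IC50.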
For orientation: In TR-FRET formats the signal depends on donor and acceptor labels being close together.

The test system of a further experiment is PC3 cells. Briefly: PC3 growth inhibition (Cell-titer glo, 72 hours). The class given is cell-based. The following applies: Homo sapiens, PC-3, 72 h, read-out: Percent Viability, PC3 cells, compound concentration 1.667 μM, 72 hours. In outline: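 After 72 h compound treatment in AIM serum-free medium (37 °C, 5% CO2), viability of overnight-plated PC3 cells (8×10^4 cells/ml, RPMI1640-maintained) is read by CellTiter-Glo luminescence versus DMSO. Curves give GI50, LD50 or single-concentration % remaining viability.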

Chain of hNAMPT protein (P43490 whole entry): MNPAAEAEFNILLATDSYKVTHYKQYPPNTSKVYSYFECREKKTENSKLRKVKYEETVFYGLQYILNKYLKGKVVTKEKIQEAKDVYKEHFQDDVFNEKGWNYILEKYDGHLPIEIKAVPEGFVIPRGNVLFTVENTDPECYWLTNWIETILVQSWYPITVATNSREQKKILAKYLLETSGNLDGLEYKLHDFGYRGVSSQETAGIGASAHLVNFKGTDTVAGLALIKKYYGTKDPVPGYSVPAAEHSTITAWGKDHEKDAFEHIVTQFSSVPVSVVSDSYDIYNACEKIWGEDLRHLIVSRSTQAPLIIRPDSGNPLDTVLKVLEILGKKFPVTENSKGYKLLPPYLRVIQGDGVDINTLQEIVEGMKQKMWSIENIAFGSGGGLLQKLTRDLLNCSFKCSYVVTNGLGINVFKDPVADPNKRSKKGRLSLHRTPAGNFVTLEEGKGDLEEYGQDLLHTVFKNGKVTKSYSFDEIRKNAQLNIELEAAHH

As to `CCNc1cc(OCC)c2ccc(C(=O)NCCCc3ncc[nH]3)cc2n1` [Compound I-42, 4-ethoxy-2-(ethylamino)-N-[3-(1H-imidazol-2-yl)propyl]quinoline-7-carboxamide], the inhibition at 1 µM at hNAMPT protein (read-out: Percent Inhibition) is 83%. The same compound yielded an IC50 on hNAMPT protein of more than 100 nM. For the same compound, the viability at 1.667 µM in the experiment on PC3 cells is 11%.

Consider `CCOc1cc(-c2ccc(C)nc2)nc2cc(C(=O)NCCc3c[nH]nc3C)ccc12` [Compound I-113, 4-ethoxy-N-[2-(3-methyl-1H-pyrazol-4-yl)ethyl]-2-(6-methylpyridin-3-yl)quinoline-7-carboxamide], for which the inhibition at 1 µM at hNAMPT protein (read-out: Percent Inhibition) was 97%. In addition, at hNAMPT protein, the 50% inhibitory concentration (IC50) lay in the range of 10 to 50 nM. In addition, the viability at 1.667 µM with PC3 cells was determined as 2%.

For the compound `CCOc1nc(-c2ccc(F)cc2)nc2cc(C(=O)NCCCc3ccnnc3)ccc12` [Compound I-29, 4-ethoxy-2-(4-fluorophenyl)-N-[3-(pyridazin-4-yl)propyl]quinazoline-7-carboxamide], at hNAMPT protein (read-out: Percent Inhibition), the inhibition at 1 µM came to 100%. For the same compound, the concentration for half-maximal inhibition (IC50) on hNAMPT protein is less than 10 nM. The viability at 1.667 µM in the experiment with PC3 cells was determined as 1%.

For `CCOc1cc(-c2ccc(OC)nc2C)nc2cc(C(=O)NCCCc3nnc[nH]3)ccc12` [Compound I-138, 4-ethoxy-2-(6-methoxy-2-methylpyridin-3-yl)-N-[3-(4H-1,2,4-triazol-3-yl)propyl]quinoline-7-carboxamide], the inhibition at 1 µM at hNAMPT protein (read-out: Percent Inhibition) is 89%. For the same compound, on hNAMPT protein, the IC50 fell in the range of 50 to 100 nM. In the experiment with PC3 cells, the viability at 1.667 µM is 2%.

On to `CCOCc1nc(-c2ccc(Cl)cc2)nc2cc(C(=O)NCCCc3ncc[nH]3)ccc12` [Compound I-20, 2-(4-chlorophenyl)-4-(ethoxymethyl)-N-[3-(1H-imidazol-2-yl)propyl]quinazoline-7-carboxamide], for which the inhibition at 1 µM on hNAMPT protein (read-out: Percent Inhibition) worked out at 98%. The same compound yielded an IC50 against hNAMPT protein of 10 to 50 nM. Besides, the viability at 1.667 µM with PC3 cells worked out at 1%.

In the case of `CCOc1cc(-c2ccc(F)cc2)nc2cc(C(=O)NCCCc3nnc[nH]3)ccc12` [Compound I-5, 4-ethoxy-2-(4-fluorophenyl)-N-[3-(4H-1,2,4-triazol-3-yl)propyl]quinoline-7-carboxamide], the inhibition at 1 µM on hNAMPT protein (read-out: Percent Inhibition) was 100%. The 50% inhibitory concentration (IC50) against hNAMPT protein is less than 10 nM. In addition, the viability at 1.667 µM with PC3 cells turned out to be 1%.

On to `CCOc1cc(-c2ccc(F)cc2)nc2cc(C(=O)NCCn3cncn3)ccc12` [Compound I-55, 4-ethoxy-2-(4-fluorophenyl)-N-[2-(1H-1,2,4-triazol-1-yl)ethyl]quinoline-7-carboxamide], for which the inhibition at 1 µM at hNAMPT protein (read-out: Percent Inhibition) is 93%. Also, the half-maximal inhibitory concentration (IC50) against hNAMPT protein lay in the range of 50 to 100 nM. Besides, the viability at 1.667 µM in the experiment with PC3 cells was determined as 86%.

Consider `CCN(C)c1nc(-c2ccc(F)cc2)nc2cc(C(=O)NCCCc3ncc[nH]3)ccc12` [Compound I-39, 4-[ethyl(methyl)amino]-2-(4-fluorophenyl)-N-[3-(1H-imidazol-2-yl)propyl]quinazoline-7-carboxamide], for which the inhibition at 1 µM at hNAMPT protein (read-out: Percent Inhibition) was 96%. For the same compound, the IC50 against hNAMPT protein is 10 to 50 nM. In addition, the viability at 1.667 µM in the experiment with PC3 cells came to 2%.

Regarding `CCOc1cc(-c2ccc(F)cc2)nc2cc(C(=O)NCC3CC3c3ncc[nH]3)ccc12` (single isomer, unassigned) [Compound I-50, 4-Ethoxy-2-(4-fluorophenyl)-N-{[trans-(1,2)-2-(1H-imidazol-2-yl)cyclopropyl]methyl}quinoline-7-carboxamide], on hNAMPT protein (read-out: Percent Inhibition), the inhibition at 1 µM came to 99%. The compound further registered an IC50 against hNAMPT protein of less than 10 nM. Also, the viability at 1.667 µM in the experiment on PC3 cells came to 3%.

As for `CCOc1cc(-c2ccn(C)c(=O)c2)nc2cc(C(=O)NCCCc3cc[nH]n3)ccc12` [Compound I-119, 4-ethoxy-2-(1-methyl-2-oxo-1,2-dihydropyridin-4-yl)-N-[3-(1H-pyrazol-3-yl)propyl]quinoline-7-carboxamide], on hNAMPT protein (read-out: Percent Inhibition), the inhibition at 1 µM stood at 100%. Further, the IC50 at hNAMPT protein lay in the range of 10 to 50 nM. Moreover, in the experiment on PC3 cells, the viability at 1.667 µM came to 2%.

Consider `CCOc1cc(-c2cc(OC)ncc2F)nc2cc(C(=O)NCCCc3nnc[nH]3)ccc12` [Compound I-225, 4-ethoxy-2-(5-fluoro-2-methoxypyridin-4-yl)-N-[3-(4H-1,2,4-triazol-3-yl)propyl]quinoline-7-carboxamide], for which, at hNAMPT protein (read-out: Percent Inhibition), the inhibition at 1 µM was 97%. The compound further had an IC50 at hNAMPT protein of 10 to 50 nM. Moreover, the viability at 1.667 µM in the experiment with PC3 cells was determined as 2%.

`CCOc1cc(-c2ccc(C)nc2)nc2cc(C(=O)NCCc3c[nH]nn3)ccc12` [Compound I-169, 4-ethoxy-2-(6-methylpyridin-3-yl)-N-[2-(1H-1,2,3-triazol-4-yl)ethyl]quinoline-7-carboxamide]: the inhibition at 1 µM at hNAMPT protein (read-out: Percent Inhibition) stood at 97%. Besides, the half-maximal inhibitory concentration (IC50) at hNAMPT protein fell in the range of 10 to 50 nM. Also, in the experiment with PC3 cells, the viability at 1.667 µM came out at 3%.

`Cc1cc(-c2nc(-c3ccc(F)cc3)nc3cc(C(=O)NCCCc4nnc[nH]4)ccc23)ccn1` [Compound I-162, 2-(4-fluorophenyl)-4-(2-methylpyridin-4-yl)-N-[3-(4H-1,2,4-triazol-3-yl)propyl]quinazoline-7-carboxamide]: on hNAMPT protein (read-out: Percent Inhibition), the inhibition at 1 µM came to 94%. On hNAMPT protein, this compound registered an IC50 of 10 to 50 nM. The viability at 1.667 µM with PC3 cells is 2%.

As to `CCOc1cc(-c2ccncc2)nc2cc(C(=O)NCCCc3nnc[nH]3)ccc12` [Compound I-214, 4-ethoxy-2-(pyridin-4-yl)-N-[3-(4H-1,2,4-triazol-3-yl)propyl]quinoline-7-carboxamide], the inhibition at 1 µM on hNAMPT protein (read-out: Percent Inhibition) amounted to 97%. For the same compound, the IC50 on hNAMPT protein lay within 10 to 50 nM. In the experiment on PC3 cells, the viability at 1.667 µM was 1%.

Regarding `CCOc1cc(-c2ccc(OC)nc2)nc2cc(C(=O)NCCc3cn[nH]c3C)ccc12` [Compound I-153, 4-ethoxy-2-(6-methoxypyridin-3-yl)-N-[2-(5-methyl-1H-pyrazol-4-yl)ethyl]quinoline-7-carboxamide], at hNAMPT protein (read-out: Percent Inhibition), the inhibition at 1 µM was 98%. Also, on hNAMPT protein, the IC50 lay in the range of 10 to 50 nM. In the experiment with PC3 cells, the viability at 1.667 µM was determined as 2%.

For the compound `CCOc1cc(-c2ccc(F)cc2)nc2cc(C(=O)NCCc3ccc(C#N)cc3)ccc12` [Compound I-47, N-[2-(4-cyanophenyl)ethyl]-4-ethoxy-2-(4-fluorophenyl)quinoline-7-carboxamide], the inhibition at 1 µM at hNAMPT protein (read-out: Percent Inhibition) was found to be 47%. This compound also showed an IC50 against hNAMPT protein of less than 10 nM. In addition, in the experiment with PC3 cells, the viability at 1.667 µM was 99%.

On to `CCOc1cc(-c2ccc(OC)nc2)nc2cc(C(=O)NCCCc3[nH]nnc3C)ccc12` [Compound I-93, 4-ethoxy-2-(6-methoxypyridin-3-yl)-N-[3-(4-methyl-1H-1,2,3-triazol-5-yl)propyl]quinoline-7-carboxamide], for which the inhibition at 1 µM at hNAMPT protein (read-out: Percent Inhibition) turned out to be 99%. The IC50 on hNAMPT protein is 10 to 50 nM. Besides, in the experiment with PC3 cells, the viability at 1.667 µM worked out at 2%.

Consider `CCOc1cc(-c2ccc(F)cc2)nc2cc(C(=O)NCc3nc(N)n[nH]3)ccc12` [Compound I-141, N-[(3-amino-1H-1,2,4-triazol-5-yl)methyl]-4-ethoxy-2-(4-fluorophenyl)quinoline-7-carboxamide], for which, at hNAMPT protein (read-out: Percent Inhibition), the inhibition at 1 µM was 82%. For the same compound, at hNAMPT protein, the IC50 was more than 100 nM. In the experiment with PC3 cells, the viability at 1.667 µM stood at 9%.

On to `CCOc1c(F)c(-c2ccnc(OC)c2)nc2cc(C(=O)NCCCc3[nH]nnc3C)ccc12` [Compound I-65, 4-ethoxy-3-fluoro-2-(2-methoxypyridin-4-yl)-N-[3-(4-methyl-1H-1,2,3-triazol-5-yl)propyl]quinoline-7-carboxamide], for which the inhibition at 1 µM on hNAMPT protein (read-out: Percent Inhibition) was 91%. Besides, the IC50 on hNAMPT protein was in the range of 50 to 100 nM. For the same compound, in the experiment with PC3 cells, the viability at 1.667 µM was 1%.

As to `CCOc1cc(-c2ccc(F)cc2)nc2cc(C(=O)NCCc3cnn[nH]3)ccc12` [Compound I-107, 4-ethoxy-2-(4-fluorophenyl)-N-[2-(1H-1,2,3-triazol-5-yl)ethyl]quinoline-7-carboxamide], the inhibition at 1 µM on hNAMPT protein (read-out: Percent Inhibition) came to 99%. At hNAMPT protein, this compound had an IC50 of less than 10 nM. Further, the viability at 1.667 µM in the experiment on PC3 cells was found to be 2%.

In the case of `CCOc1cc(-c2cccnc2OC)nc2cc(C(=O)NCCc3c[nH]nc3C)ccc12` [Compound I-144, 4-ethoxy-2-(2-methoxypyridin-3-yl)-N-[2-(3-methyl-1H-pyrazol-4-yl)ethyl]quinoline-7-carboxamide], at hNAMPT protein (read-out: Percent Inhibition), the inhibition at 1 µM turned out to be 94%. Besides, the IC50 at hNAMPT protein lay in the range of 10 to 50 nM. The viability at 1.667 µM in the experiment on PC3 cells was determined as 2%.

For the compound `CCOc1cc(-c2ccc(Cl)s2)nc2cc(C(=O)NCc3nc4cnccc4[nH]3)ccc12` [Compound I-175, 2-(5-chloro-2-thienyl)-4-ethoxy-N-(1H-imidazo[4,5-c]pyridin-2-ylmethyl)quinoline-7-carboxamide], the inhibition at 0.33 µM on hNAMPT protein (NAMPT inhibition at compound concentration 0.33 μM, read-out: Percent Inhibition) turned out to be 98%. On hNAMPT protein, this compound returned a half-maximal inhibitory concentration (IC50) of less than 10 nM. Moreover, the viability at 1.667 µM in the experiment with PC3 cells worked out at 2%.

In the case of `CCOc1cc(-c2ccc(=O)n(C)c2)nc2cc(C(=O)NCCc3[nH]nnc3C)ccc12` [Compound I-76, 4-ethoxy-2-(1-methyl-6-oxo-1,6-dihydropyridin-3-yl)-N-[2-(4-methyl-1H-1,2,3-triazol-5-yl)ethyl]quinoline-7-carboxamide], at hNAMPT protein (read-out: Percent Inhibition), the inhibition at 1 µM was 93%. For the same compound, the IC50 at hNAMPT protein is 50 to 100 nM. Further, the viability at 1.667 µM in the experiment with PC3 cells is 11%.

For `CCOc1cc(-c2cncc(C)c2)nc2cc(C(=O)NCCCc3nnc[nH]3)ccc12` [Compound I-127, 4-ethoxy-2-(5-methylpyridin-3-yl)-N-[3-(4H-1,2,4-triazol-3-yl)propyl]quinoline-7-carboxamide], the inhibition at 1 µM at hNAMPT protein (read-out: Percent Inhibition) is 87%. The same compound registered an IC50 at hNAMPT protein of 50 to 100 nM. The viability at 1.667 µM in the experiment with PC3 cells came out at 2%.

`CCOc1cc(-c2ccc(F)cc2)nc2cc(C(=O)NCCCc3nccs3)ccc12` [Compound I-44, 4-ethoxy-2-(4-fluorophenyl)-N-[3-(1,3-thiazol-2-yl)propyl]quinoline-7-carboxamide]: the inhibition at 1 µM at hNAMPT protein (read-out: Percent Inhibition) was determined as 97%. Besides, the concentration for half-maximal inhibition (IC50) at hNAMPT protein was less than 10 nM. The viability at 1.667 µM in the experiment with PC3 cells was 58%.

As usually defined, the inhibition is the drop in the measured response relative to a control, in per cent. By IC50 is commonly meant the concentration at which inhibition is half-maximal.
